Data as given in article PMC6358602, “The catalytic activity and secretion of zebrafish RNases are essential for their in vivo function in motor neurons and vasculature” (Scientific Reports, 2019).

Target: T1, human angiogenin (hANG) (Homo sapiens, UniProt P03950)
T1 construct: gene ANG; [Met−1]-form
Test: fluorogenic RNase activity assay with and without NCI-65828 (Fig. 1E)
Assay type: biochemical

T1 sequence (P03950 25-147): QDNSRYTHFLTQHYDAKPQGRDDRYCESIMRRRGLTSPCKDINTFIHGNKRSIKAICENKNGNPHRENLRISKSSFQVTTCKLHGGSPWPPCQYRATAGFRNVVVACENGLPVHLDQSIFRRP

Nc1ccc(/N=N/c2ccc(-c3ccc(O)cc3)cc2)c2ccc(S(=O)(=O)O)cc12 [NCI-65828, 8-amino-5-(4′-hydroxybiphenyl-4-azo) napathlene-2-sulphate]
fluorogenic RNase activity assay with and without NCI-65828 (Fig. 1E): Enzyme kinetic data for Rnasel and hANG native protein and in the presence of NCI-65828.
